# Assay results as given in patent US8247211B2, “Glycopeptide antibiotics” (American Cyanamid Company, priority 2001, dated 2012).
# Assays:
# Assay in all cases: In vitro antibacterial evaluation: minimum inhibitory concentration (MIC), broth dilution method
# Assay type in all cases: cell-based
# Staphylococcus sp. = details: broth dilution, 18 hours at 35° C.
# Protocol: (§1) The minimum inhibitory concentration (MIC), the lowest concentration of the antibiotic which inhibits growth of the test organism, is determined by the broth dilution method using Muller-Hinton II […] (Baltimore Biological Laboratories) following the recommendations of the National Committee for Clinical Laboratory Standards [Methods for dilution antimicrobial susceptibility tests for bacteria that grow aerobically, approved standard M7-A2, National Committee for Clinical Laboratory Standards, Villanova, Pa].
# (§2) An inoculum level of 5×10^5 CFU/mL, and a range of antibiotic concentrations (64-0.06 μg/mL) is used. […] The test organisms include a spectrum of Gram-positive bacteria comprised of Staphylococcus sp., Streptococcus sp. and Enterococcus sp. These organisms include recent clinical isolates that are resistant to methicillin, penicillin and/or vancomycin.
# Streptococcus sp. = system: Streptococcus sp.
# Protocol: as §1, §2
# Enterococcus sp. = system: Enterococcus sp.
# Protocol: as §1, §2
# Escherichia coli = system: Escherichia coli
# Protocol: as §1, §2
smiles,measurement,setting,value
"COc1cccc(C2OC3C(OC4C(CO)OC(Oc5ccc(CC6NC(=O)C(C(C)c7ccccc7)NC(=O)CNC(=O)C(CO)NC(=O)C(C(O)C7CNC(=N)N7C7OC(CO)C(O)C(O)C7O)NC(=O)C(C(O)C7CNC(=N)N7)NC6=O)cc5)C(O)C4O)OC(CO)C(O)C3O2)c1 (single isomer, unassigned) [Example 137a, Cyclo[glycyl-β-methylphenylalanyl-O-[4-O-[2,3-O-(3-methoxybenzylidene)hexopyranosyl]-hexopyranosyl]tyrosyl-3-(2-iminoimidazolidin-4-yl)seryl-3-(3-hexopyranosyl-2-iminoimidazolidin-4-yl)serylseryl]]",MIC Coagulase Negative Staphylococcus (GC 4547),Staphylococcus sp.; 5×10^5 CFU/mL,16 µg/mL
same,MIC Coagulase Negative Staphylococcus (GC 4548),Staphylococcus sp.; 5×10^5 CFU/mL,8 µg/mL
same,MIC Coagulase Negative Staphylococcus (GC 4549),Staphylococcus sp.; 5×10^5 CFU/mL,8 µg/mL
same,MIC Coagulase Negative Staphylococcus (GC 4551),Staphylococcus sp.; 5×10^5 CFU/mL,16 µg/mL
same,MIC Coagulase Negative Staphylococcus (GC 6257),Staphylococcus sp.; 5×10^5 CFU/mL,8 µg/mL
same,MIC Staphylococcus aureus (ATCC 29213),Staphylococcus sp.; 5×10^5 CFU/mL,32 µg/mL
same,MIC Staphylococcus aureus (GC 1131),Staphylococcus sp.; 5×10^5 CFU/mL,32 µg/mL
same,MIC Staphylococcus aureus (GC 3051),Staphylococcus sp.; 5×10^5 CFU/mL,32 µg/mL
same,MIC Staphylococcus aureus (GC 3053),Staphylococcus sp.; 5×10^5 CFU/mL,32 µg/mL
same,MIC Staphylococcus aureus (GC 4541),Staphylococcus sp.; 5×10^5 CFU/mL,16 µg/mL
same,MIC Staphylococcus aureus (GC 4542),Staphylococcus sp.; 5×10^5 CFU/mL,32 µg/mL
same,MIC Staphylococcus aureus (GC 4544),Staphylococcus sp.; 5×10^5 CFU/mL,32 µg/mL
same,MIC Staphylococcus aureus (GC 4545),Staphylococcus sp.; 5×10^5 CFU/mL,32 µg/mL
same,MIC Staphylococcus aureus-SMITH (GC 4543),Staphylococcus sp.; 5×10^5 CFU/mL,16 µg/mL
same,MIC Staphylococcus haemolyticus (GC 4546),Staphylococcus sp.; 5×10^5 CFU/mL,16 µg/mL
same,MIC Staphylococcus aureus (ATCC 29213),Staphylococcus sp.; strain ATCC 29213,32 µg/mL
same,MIC Staphylococcus aureus (GC 1131),Staphylococcus sp.; strain GC 1131,32 µg/mL
same,MIC Staphylococcus aureus (GC 3051),Staphylococcus sp.; strain GC 3051,32 µg/mL
same,MIC Staphylococcus aureus (GC 3053),Staphylococcus sp.; strain GC 3053,32 µg/mL
same,MIC Staphylococcus aureus (GC 4541),Staphylococcus sp.; strain GC 4541,16 µg/mL
same,MIC Staphylococcus aureus (GC 4542),Staphylococcus sp.; strain GC 4542,32 µg/mL
same,MIC Staphylococcus aureus-SMITH (GC 4543),Staphylococcus sp.; strain GC 4543,16 µg/mL
same,MIC Staphylococcus aureus (GC 4544),Staphylococcus sp.; strain GC 4544,32 µg/mL
same,MIC Staphylococcus aureus (GC 4545),Staphylococcus sp.; strain GC 4545,32 µg/mL
same,MIC Staphylococcus haemolyticus (GC 4546),Staphylococcus sp.; strain GC 4546,16 µg/mL
same,MIC Coagulase Negative Staphylococcus (GC 4547),Staphylococcus sp.; strain GC 4547,16 µg/mL
same,MIC Coagulase Negative Staphylococcus (GC 4548),Staphylococcus sp.; strain GC 4548,8 µg/mL
same,MIC Coagulase Negative Staphylococcus (GC 4549),Staphylococcus sp.; strain GC 4549,8 µg/mL
same,MIC Coagulase Negative Staphylococcus (GC 4551),Staphylococcus sp.; strain GC 4551,16 µg/mL
same,MIC Coagulase Negative Staphylococcus (GC 6257),Staphylococcus sp.; strain GC 6257,8 µg/mL
same,MIC Streptococcus pneumoniae (ATCC 6301),Streptococcus sp.; strain ATCC 6301,8 µg/mL
same,MIC Streptococcus pneumoniae (GC 1894),Streptococcus sp.; strain GC 1894,4 µg/mL
same,MIC Streptococcus pyogenes (GC 4563),Streptococcus sp.; strain GC 4563,16 µg/mL
same,MIC Streptococcus agalactiae (GC 4564),Streptococcus sp.; strain GC 4564,16 µg/mL
same,MIC Streptococcus pneumoniae (GC 4565),Streptococcus sp.; strain GC 4565,16 µg/mL
same,MIC Enterococcus faecalis (ATCC 29212),Enterococcus sp.; strain ATCC 29212,>64 µg/mL
same,MIC Enterococcus faecalis (GC 2242),Enterococcus sp.; strain GC 2242,>64 µg/mL
same,MIC Enterococcus faecium (GC 2243),Enterococcus sp.; strain GC 2243,>64 µg/mL
same,MIC Enterococcus faecalis (GC 2691),Enterococcus sp.; strain GC 2691,>64 µg/mL
same,MIC Enterococcus faecalis (GC 3059),Enterococcus sp.; strain GC 3059,>64 µg/mL
same,MIC Enterococcus faecalis (GC 4552),Enterococcus sp.; strain GC 4552,>64 µg/mL
same,MIC Enterococcus faecalis (GC 4553),Enterococcus sp.; strain GC 4553,>64 µg/mL
same,MIC Enterococcus faecalis (GC 4554),Enterococcus sp.; strain GC 4554,>64 µg/mL
same,MIC Enterococcus faecium (GC 4556),Enterococcus sp.; strain GC 4556,>64 µg/mL
same,MIC Enterococcus faecium (GC 4557),Enterococcus sp.; strain GC 4557,16 µg/mL
same,MIC Enterococcus avium (GC 4558),Enterococcus sp.; strain GC 4558,64 µg/mL
same,MIC Enterococcus faecalis (GC 6189),Enterococcus sp.; strain GC 6189,>64 µg/mL
same,MIC Escherichia coli (ATCC 25922),Escherichia coli; strain ATCC 25922,>64 µg/mL
same,MIC Escherichia coli (GC 4559),Escherichia coli; strain GC 4559,>64 µg/mL
same,MIC Escherichi coli (GC 4560),Escherichia coli; strain GC 4560,8 µg/mL
